Results: patent publication US10779535B2, “Herbicidal compositions comprising 4-amino-3-chloro-5-fluoro-6-(4-chloro-2-fluoro-3-methoxyphenyl) pyridine-2-carboxylic acid or a derivative thereof and tembotrione and/or topramezone” (Dow AgroSciences LLC, priority 2017, dated 2020)

Legend:
Assay in all cases: Post-emergence foliar-applied herbicidal mixtures, greenhouse visual weed control
Type in all cases: in vivo
[1] = test system: AMAPA (Amaranthus palmeri, Palmer amaranth)
Description: (§1) Seeds of the desired test plant species were planted in a potting media, Metro-mix 360, a peat based potting soil. Metro-mix consists of 35 to 45% specially processed coconutcoir pith, 10 to 20% horticultural grade vermiculite, 15 to 25% processed ash bark, 20 to 30% choice Canadian sphagnum peat moss and proprietary nutrients and other ingredients. When required to ensure good germination and healthy plants, a fungicide treatment and/or other chemical treatment was applied. The plants were grown for 8-16 days in a greenhouse with an approximate 14 h photoperiod which was maintained at about 29° C. during the day and 26° C. during the night. Nutrients (Peters Excel® 15-5-15 5-Ca 2-Mg and iron chelate) were applied in the irrigation solution as needed and water was added on a regular basis. Supplemental lighting was provided with overhead metal halide 1000-Watt lamps as necessary. The plants were sprayed when they reached the second through fourth true leaf stage.
(§2) Treatments consisted of the benzyl ester of 4-amino-3-chloro-5-fluoro-6-(4-chloro-2-fluoro-3-methoxy-phenyl)pyridine-2-carboxylic acid (II), formulated as an SC (suspension concentrate), GF-2978 containing 125.8 g ai/L of active ingredient, and various herbicidal components alone and in combination. The benzyl ester of formula (II) was applied on an active ingredient basis.
(§3) Other herbicidal components were applied on an active ingredient basis and included 4-hydroxyphenyl pyruvate dioxygenase (HPPD)-inhibiting herbicides tembotrione formulated as Laudis, an SC formulation containing 420 g ai/L of tembotrione, or topramezone formulated as Armezon, an SC formulation containing 335.8 g ai/L of topramezone. All treatments were applied with Prime Oil, (crop oil concentrate) at 1% v/v.
(§4) Treatment requirements were calculated based upon the rates being tested, the concentration of active ingredient or acid equivalent in the formulation, for a 30 ml volume based off of an application rate of 200 L/ha. Appropriate amounts of formulated product as calculated by the software package ARM8 (Gylling Data Management Inc.) were added to 60 ml glass vials and diluted with Indianapolis tap water and Prime Oil at 1% v/v. Treatments were applied with Generation III Research Track-Sprayer manufactured by DeVries Manufacturing in Hollandale, Minn., USA, located in building 306, room E1-483, at the Dow AgroSciences Global headquarters in Indianapolis, Ind. US. The track sprayer was calibrated to deliver 200 L/ha utilizing an 8003E even fan spray nozzle at 40 psi (276 kPa) at a speed of 2 mph (3.25 km/hr) and a spray height of 18 to 20 inches (46 to 50 cm) above average plant canopy height.
(§5) The treated plants and control plants were placed in a greenhouse as described above and watered by sub-irrigation to prevent wash-off of the test compounds. […], the condition of the test plants as compared with that of the untreated plants was determined visually and scored on a scale of 0 to 100 percent where 0 corresponds to no injury or growth inhibition and 100 corresponds to complete kill. The Colby method was used to determine the herbicidal effects expected from the mixtures.

[2] = test system: ECHCG (Echinochloa crusgalli (L.) Beauv., barnyardgrass)
Description: as §1, §2, §3, §4, §5

[3] = test system: AMARE (Amaranthus retroflexus, redroot pigweed)
Description: as §1, §2, §3, §4
The treated plants and control plants were placed in a greenhouse as described above and watered by sub-irrigation to prevent wash-off of the test compounds. […] the untreated plants was determined visually and scored on a scale of 0 to 100 percent where 0 corresponds to no injury or growth inhibition and 100 corresponds to complete kill. The Colby method was used to determine the herbicidal effects expected from the mixtures.

[4] = test system: IPOHE (Ipomoea hederacea (L.) Jacq., ivyleaf morningglory)
Description: as §1, §2, §3, §4, §5

[5] = Compound II 0 gai/ha, Tembotrione 46 gai/ha
[6] = Compound II 2.5 gai/ha, Tembotrione 0 gai/ha
[7] = Compound II 2.5 gai/ha, Topramezone 0 gai/ha
[8] = Compound II 5 gai/ha, Topramezone 0 gai/ha
[9] = Compound II 7.5 gai/ha, Topramezone 0 gai/ha
[10] = Compound II 15 gai/ha, Topramezone 0 gai/ha
[11] = Compound II 0 gai/ha, Topramezone 3 gai/ha
[12] = Compound II 0 gai/ha, Topramezone 6 gai/ha
[13] = Compound II 0 gai/ha, Topramezone 24 gai/ha
[14] = Compound II 0 gai/ha, Topramezone 12 gai/ha

SMILES: CS(=O)(=O)c1ccc(C(=O)C2C(=O)CCCC2=O)c(Cl)c1COCC(F)(F)F [Tembotrione, 2-[2-chloro-4-(methylsulfonyl)-3-[(2,2,2-trifluoroethoxy)methyl]benzoyl]-1,3-cyclohexanedione]
- Visual Weed Control (%) - 12 DAA AMAPA Obs ([1]; Compound II 0 gai/ha, Tembotrione 5.75 gai/ha): 44.33%
- Visual Weed Control (%) - 12 DAA AMAPA Obs ([1]; Compound II 0 gai/ha, Tembotrione 11.5 gai/ha): 50%
- Visual Weed Control (%) - 12 DAA AMAPA Obs ([1]; Compound II 0 gai/ha, Tembotrione 23 gai/ha): 66%
- Visual Weed Control (%) - 5 DAA ECHCG Obs [2, 5]: 57.5%
- Visual Weed Control (%) - 12 DAA AMARE Obs [3, 5]: 43.75%

SMILES: COc1c(Cl)ccc(-c2nc(C(=O)OCc3ccccc3)c(Cl)c(N)c2F)c1F [Compound II, benzyl 4-amino-3-chloro-6-(4-chloro-2-fluoro-3-methoxyphenyl)-5-fluoropyridine-2-carboxylate]
- Visual Weed Control (%) - 12 DAA AMAPA Obs [1, 6]: 75%
- Visual Weed Control (%) - 12 DAA AMAPA Obs [1, 7]: 75%
- Visual Weed Control (%) - 12 DAA AMAPA Obs ([1]; Compound II 5 gai/ha, Tembotrione 0 gai/ha): 73.33%
- Visual Weed Control (%) - 12 DAA AMAPA Obs [1, 8]: 73.33%
- Visual Weed Control (%) - 12 DAA AMAPA Obs [1, 9]: 85%
- Visual Weed Control (%) - 12 DAA AMAPA Obs ([1]; Compound II 15 gai/ha, Tembotrione 0 gai/ha): 80%
- Visual Weed Control (%) - 12 DAA AMAPA Obs [1, 10]: 80%
- Visual Weed Control (%) - 5 DAA ECHCG Obs [2, 6]: 22.5%
- Visual Weed Control (%) - 5 DAA ECHCG Obs [2, 7]: 22.5%
- Visual Weed Control (%) - 5 DAA ECHCG Obs [2, 8]: 53.75%
- Visual Weed Control (%) - 5 DAA ECHCG Obs [2, 9]: 55%
- Visual Weed Control (%) - 5 DAA ECHCG Obs [2, 10]: 65%
- Visual Weed Control (%) - 12 DAA ECHCG Obs [2, 8]: 61.25%
- Visual Weed Control (%) - 12 DAA ECHCG Obs [2, 9]: 70.75%
- Visual Weed Control (%) - 5 DAA IPOHE Obs [4, 7]: 51.25%
- Visual Weed Control (%) - 5 DAA IPOHE Obs [4, 8]: 62.5%
- Visual Weed Control (%) - 5 DAA IPOHE Obs [4, 9]: 61.25%
- Visual Weed Control (%) - 5 DAA IPOHE Obs [4, 10]: 55.75%
- Visual Weed Control (%) - 5 DAA AMARE Obs [3, 10]: 73%
- Visual Weed Control (%) - 12 DAA AMARE Obs [3, 6]: 61.25%
- Visual Weed Control (%) - 12 DAA AMARE Obs [3, 7]: 61.25%
- Visual Weed Control (%) - 12 DAA AMARE Obs [3, 8]: 65.75%
- Visual Weed Control (%) - 12 DAA AMARE Obs ([3]; Compound II 7.5 gai/ha, Tembotrione 0 gai/ha): 75%
- Visual Weed Control (%) - 12 DAA AMARE Obs [3, 9]: 75%

SMILES: Cc1c(C(=O)c2cnn(C)c2O)ccc(S(C)(=O)=O)c1C1=NOCC1 [Topramezone, [3-(4,5-dihydro-3-isoxazolyl)-2-methyl-4-(methylsulfonyl)phenyl](5-hydroxy-1-methyl-1H-pyrazol-4-yl)methanone]
- Visual Weed Control (%) - 12 DAA AMAPA Obs [1, 11]: 86.67%
- Visual Weed Control (%) - 12 DAA AMAPA Obs [1, 12]: 75%
- Visual Weed Control (%) - 5 DAA ECHCG Obs [2, 11]: 0.75%
- Visual Weed Control (%) - 5 DAA ECHCG Obs [2, 12]: 6.25%
- Visual Weed Control (%) - 5 DAA ECHCG Obs [2, 13]: 51.25%
- Visual Weed Control (%) - 12 DAA ECHCG Obs [2, 11]: 0%
- Visual Weed Control (%) - 12 DAA ECHCG Obs [2, 12]: 1.25%
- Visual Weed Control (%) - 12 DAA ECHCG Obs [2, 14]: 36.25%
- Visual Weed Control (%) - 5 DAA IPOHE Obs [4, 11]: 6.25%
- Visual Weed Control (%) - 5 DAA IPOHE Obs [4, 12]: 6.25%
- Visual Weed Control (%) - 5 DAA IPOHE Obs [4, 14]: 8.75%
- Visual Weed Control (%) - 5 DAA IPOHE Obs [4, 13]: 33.25%
- Visual Weed Control (%) - 5 DAA AMARE Obs [3, 13]: 50.75%
- Visual Weed Control (%) - 12 DAA AMARE Obs [3, 12]: 52.5%
- Visual Weed Control (%) - 12 DAA AMARE Obs [3, 14]: 77.5%
